Where two headings read alike, the source gives them in different places.

This is an account of results in patent US20230322837A1, “PREPARATION METHOD FOR AND APPLICATION OF CLASS OF STELLATE BIFUNCTIONAL COMPOUNDS TARGETING SPIKE PROTEIN AGAINST RESPIRATORY TRACT INFECTION VIRUS AND SALT THEREOF” (priority 2020, published 2023).

In assay [1] the test system is Lentivirus-NC virus infection of H1299 cells. To be noted: different virus titers (MOI 5, 10, 20), FIGS. 7 and 9. As for the experimental part:
H1299 Human lung cancer cells, cultured with RPMI-1640 10% fetal bovine serum in an incubator with 5% CO2 and saturated humidity at 37° C. • RPMI-1640 + 10% Fetal Bovine Serum • PBS (Life Science Products&Services) • Trypsin-EDTA Solution (Gibco) • 24-well plate (Corning) • Lentivirus-NC virus solution (GenePharma, 1×10^9 TU/mL)
Principles and procedures for virus infection experiment • 1.

For assay [2], the system named is plasma coagulation. To be noted: for APTT: in vitro, rabbit platelet poor plasma, x±s, n = 3. The protocol: (§1) Coagulation is a complex process involving a series of coagulation factors, which essentially include two pathways, “intrinsic coagulation pathway” and “extrinsic coagulation pathway”. Activated partial thromboplastin time (APTT), prothrombin time (PT), and thrombin time (TT) are adopted usually in the laboratory to evaluate the anticoagulant effect.
(§2) New Zealand rabbits were anaesthetized with chloral hydrate, heart puncture was conducted to collect blood into an anticoagulant tube containing ⅒ vol 3.8% sodium citrate, followed by centrifuging at 3000 rpm for 15 min, supernatant was collected to obtain platelet poor plasma which was stored in a refrigerator for later use.
(§3) The compounds were prepared with DMSO to obtain stock solutions with a concentration of 10 mM. Samples to be tested were diluted with normal saline during the test, with a final concentration of 50 µM, 12.5 µM, 3.13 µM, 0.78 µM, 0.20 µM, and 0.05 µM.
APTT Assay: 100 µL of plasma was mixed well with 50 µL of samples to tested respectively, the mixture was pre-heated at 37° C. for 2 min, then 50 µL of APTT reagent was added, followed by incubation at 37° C. for 3 min, addition of 50 µL of 0.025 mol/L CaCl2, and detection on an automatic blood coagulation analyzer to record the coagulation time.
(§4) One-way analysis of variance (One-Way ANOVA) was performed for multi-group comparison; pairwise comparison for means among groups was performed, with Dunnett’s multiple comparisons test in case of homogeneity of variance, and Dunnett’s T3 multiple comparisons test in case of heterogeneity of variance. P <0.05 means statistical significance.

The subject of assay [3] is plasma coagulation. To be noted: in vitro, rabbit platelet poor plasma, x±s, n = 3. As for the experimental part: as §1, §2, §3
TT Assay: 100 µL of prepared plasma was mixed well with 50 µL of the sample mixture to be tested, and pre-heated at 37° C. for 2 min, followed by addition of 50 µL of TT reagent to the mixture and detection to record results of the instrument.
as §4

Assay [4] has as its system plasma coagulation. The settings on record: in vitro, rabbit platelet poor plasma, x±s, n = 3. As for the experimental part:
as §1, §2, §3
PT Assay: 50 µL of plasma was mixed well with 20 µL of samples to be tested respectively, the mixture was pre-heated at 37° C. for 2 min, followed by incubation at 37° C. for 3 min, and addition of 100 µL of PT reagent. The mixture was mixed well and tested to record the coagulation time.
as §4
This is another data set of the same source.

For the compound `O=C(Oc1ccc(-c2coc3c(OC(=O)c4cc(O)c(O)c(O)c4)cc(OC(=O)c4cc(O)c(O)c(O)c4)c(OC(=O)c4cc(O)c(O)c(O)c4)c3c2=O)cc1)c1cc(O)c(O)c(O)c1` [Compound 4], the “inhibition of virus infection in cells” value was “significantly inhibited virus infection in cells” in assay [1] (10 µM concentration) and “significantly inhibit virus infection in cells” in assay [1] (20 µM concentration).

Turning to `O=C(O)CC1OC(O)C(OC(=O)c2cc(O)c(O)c(O)c2)C(OC(=O)c2cc(O)c(O)c(O)c2)C1OC(=O)c1cc(O)c(O)c(O)c1` (stereo not shown) [Compound 6], the “inhibition of plasma coagulation (coagulation indexes APTT, PT, and TT)” value in the assay on plasma coagulation [2] (dose gradients 50.00, 12.50, 3.13, 0.78, 0.20, 0.05 (printed µL), covers APTT, PT and TT) was “dose-dependently inhibit plasma coagulation”. Moreover, the APTT in the assay on plasma coagulation [2] (0.05 µM) stood at 20.12 ± 0.09 s; with plasma coagulation [2] (0.20 µM) it was 24.03 ± 1.05 s; in the assay on plasma coagulation [2] (0.78 µM), 26.84 ± 0.79 s; in the assay with plasma coagulation [2] (3.13 µM), 37.72 ± 1.83 s; in the assay with plasma coagulation [2] (12.50 µM), 75.11 ± 2.58 s; in the assay on plasma coagulation [2] (50.00 µM) it was 106.51 ± 0.94 s. For the same compound, the “inhibition of virus infection in cells” value in assay [1] (20 µM concentration) is “significantly inhibit virus infection in cells”. In addition, the TT with plasma coagulation [3] (0.05 µM) is 23.35 ± 0.31 s; with plasma coagulation [3] (0.20 µM), 22.90 ± 0.09 s; in the assay with plasma coagulation [3] (0.78 µM) it was 23.95 ± 0.07 s; with plasma coagulation [3] (3.13 µM), 25.25 ± 0.27 s; in the assay with plasma coagulation [3] (12.50 µM) it was 28.89 ± 0.68 s; in the assay with plasma coagulation [3] (50.00 µM), 38.87 ± 0.77 s. Besides, the PT with plasma coagulation [4] (0.05 µM) was 9.76 ± 0.85 s; in the assay with plasma coagulation [4] (0.20 µM), 10.11 ± 0.30 s; with plasma coagulation [4] (0.78 µM), 10.54 ± 0.37 s; with plasma coagulation [4] (3.13 µM), 12.83 ± 0.19 s; with plasma coagulation [4] (12.50 µM) it was 13.73 ± 0.17 s; in the assay on plasma coagulation [4] (50.00 µM) it was 16.66 ± 0.45 s.
